Measured values: patent US20250085284A1, “PRODUCTS AND USES THEREOF FOR PREDICTING THE SENSITIVITY OF A SUBJECT TO CANCER IMMUNOTHERAPY INVOLVING AN ANTI-PD(L)1 AND AN ANTI-ANGIOGENIC AGENT, AND FOR SELECTING OPTIMIZED THERAPY” (INSTITUT GUSTAVE ROUSSY, priority 2023, published 2025)

Legend:
[1] = system: plasma cytokines, chemokines and soluble angiogenic factors; assay: Plasma cytokine, chemokine and soluble factor titration on treatment (D-7, C1D1, C1D8); assay type: in vivo, human
Experimental: Frozen plasma and frozen tumor biopsy supernatants were subsequently thawed, centrifuged for 15 min at 1,000 g, then titrated using Bio-Plex Pro™ Human Chemokine Panel (40-Plex, ref. 171AK99MR2, Bio-rad), Angiogenesis Panel 1 (human) (ref. K151P3S-1, Meso Scale Discovery), Human PD-1 and PD-L1 antibody sets (ref. F214A-3 & F214C-3, Meso Scale Discovery) following manufacturer's instructions. Each sample was run twice with the average value of the doublet taken as the result. Acquisitions were done on Bio-Plex 200™ System and MESO™ QuickPlex SQ120 readers. Raw data from Meso Scale Discovery's kit were analyzed with MSD's Discovery Workbench 4.0.
Inventors took advantage of the one-week lead-in nintedanib monotherapy prior to the pembrolizumab introduction to analyze the respective effects of the two drugs. Sequential blood sampling was performed at baseline and on-treatment in order to identify selective phannacodynamic markers of Nintedanib and Pembrolizumab that occurred upon treatment in all patients and independently from the treatment efficacy. Plasma was obtained from blood draws collected at baseline (D-7), one week after the nintedanib monotherapy lead-in (C1D1) and one week after the addition of pembrolizumab (C1D8). […] CCL15 and CXCL10 were also decreasing in all patients upon Nintedanib monotherapy but this decrease was only significant for patients with DCB (FIG. 10A).

[2] = PEMBIB trial, mesothelioma expansion cohort: safety and tolerability (CTCAE Version 4.03); design: species or system human; details: in vivo
advanced mesothelioma = details: monotherapy; n=118; cited from earlier work
[3] = D-7 vs C1D1, one-week nintedanib monotherapy, patients with both DCB and No DCB
[4] = nintedanib monotherapy week, all patients, only significant for DCB
[5] = one week after initiation of pembrolizumab, DCB and No DCB
[6] = upon pembrolizumab addition (C1D1 to C1D8), only significant in No DCB

Molecule: COC(=O)c1ccc2c(c1)NC(=O)/C2=C(\Nc1ccc(N(C)C(=O)CN2CCN(C)CC2)cc1)c1ccccc1 [nintedanib]
- blood Angiopoietin-2 level [1, 3]: significantly decreased
- blood CCL21 level [1, 3]: significantly decreased
- blood CCL23 level [1, 3]: significantly decreased
- plasma CCL8 level ([1]; first week of nintedanib, patients with DCB): tended to decrease
- plasma CCL8 level ([1]; first week of nintedanib, patients with No DCB): significantly increased
- plasma CCL15 level [1, 4]: decreasing
- plasma CXCL10 level [1, 4]: decreasing
- tolerability of nintedanib 150 mg BID versus 200 mg BID [2]: better tolerated

Molecule: pembrolizumab
- circulating soluble PD-1 (sPD1) median level ([1]; C1D8, one week after addition of pembrolizumab to nintedanib, both DCB and No DCB): above 10 ng/mL
- plasma CCL19 level ([1]; after one week of combination with pembrolizumab, all patients): increase
- circulating soluble PD-L1 (sPDL1) level ([1]; one week after addition of pembrolizumab, all patients): significantly increased
- CXCL9 serum level [1, 5]: significant rise
- CXCL10 serum level [1, 5]: significant rise
- CXCL11 serum level [1, 5]: significant rise
- CXCL13 serum level [1, 5]: significant rise
- plasma CCL3 level [1, 6]: increased
- plasma CCL8 level [1, 6]: increased
- plasma CCL17 level [1, 6]: increased
- plasma CCL23 level [1, 6]: increased
- plasma CXCL2 level [1, 6]: decreased
- objective response rate (ORR; BORR per RECIST1.1) (advanced mesothelioma): 8%
